# According to PMC6711177, “Sorafenib-loaded hydroxyethyl starch-TG100-115 micelles for the treatment of liver cancer based on synergistic treatment” (Drug Delivery, 2019):
# Columns and labels:
# [1] = test system: Hep-3B-xenografted nude mouse model; assay: In vivo anti-tumor activity and safety in Hep-3B-xenografted nude mouse model; settings: Hep-3B nude mouse, TG100-115 30 mg/kg and/or sorafenib 20 mg/kg; for IRT (tumor inhibition rate): versus normal saline
# Description: The in vivo anti-tumor activity and safety of the prepared micelles was investigated by using Hep-3B-xenografted nude mouse model. The mice were randomly divided into six groups (n = 6) when the tumor volumes reached around 150 mm^3. The tumor-bearing mice were treated with non-targeted micelles solution, targeted micelle solution, TG100-115 solution, sorafenib solution, mixed sorafenib/TG100-115 solution and normal saline. […] The mice were sacrificed on day 28. Thereafter, the tumors were totally excised and precisely weighed. The tumor inhibitory rates were calculated using the formula: Tumor inhibition rate (%) = (Vblank −Vsample)/Vblank × 100%, Vblank, and Vsample represent the tumor volumes in the blank and test, reference group respectively.
# [2] = in vivo; set-up: species or system Sprague-Dawley rats; settings: rat, iv
# Description: Sprague-Dawley rats were randomly divided into three groups and each group contains 6 rats. The prepared micelles solution was injected through femoral vein and the dose was 20 mg/kg (sorafenib) and 30 mg/kg (TG100-115). Free sorafenib and TG100-115 solutions were used as reference and the dose is same as the micelles group. After the end of administration, appropriate blood was obtained from the retro-orbital sinus at preselected time intervals (5, 10, 15, 30, 60 min, 2, 4, 6, 8, 12, 24, 48 and 72 h). Then, the blood was centrifuged at 3500 rpm for 10 min to acquire final plasma.
# The plasma concentration of sorafenib and TG100-115 was measured using a validated HPLC-MS/MS method. The specific conditions are as follows: poroshell 120 poroshell-C18 column (50 mm × 4.6 mm, 2.7 μm, Agilent) was chosen as an analytical column, and the column temperature was 40 °C. The mobile phase comprised acetonitrile and 10 mmol/L ammonium acetate containing 0.1% formic acid, and the flow rate was 0.7 mL/min. Imatinib and naproxen were chosen as internal standard (IS) to improve the accuracy of the measurement. The ion ionization of sorafenib and imatinib was positive ion ionization, while TG100-115 and naproxen were negative ion ionization. The specific MS parameters of analytes were shown in S1 (Supplemental 1).
# Plasma samples are processed according to the standard operating practices described below. Briefly, add 150.0 μL of plasma sample and 20.0 μL of the IS solution in a 2.0 mL EP tube. Then, the solution was vortexed for 1.0 min and added 300 μL of ice acetonitrile to precipitate protein. After vortexing for 1.0 min, the solution was centrifuged at 15000 rpm for 10 min. After that, 150 μL of supernatant was collected for quantitative analysis.
# [3] = set-up: method as in Hsu et al., 2018; Wang et al., 2018; settings: checkpoint inhibitor alone only 20%, ref Hsu et al., 2018, Wang et al.; cited from earlier work
# [4] = twice a week for 4 weeks, day 28
Compound,"Body weight Final [1, 4] [g]","Tumor weight [1, 4] [g]","IRT (tumor inhibition rate) [1, 4] [%]",Body weight Initial ([1]; before treatment) [g],"AUC(0-inf) ([2]; Sprague-Dawley, 20 mg/kg) [ng·h/mL]","AUC(0-t) ([2]; Sprague-Dawley, 20 mg/kg) [ng·h/mL]","Cmax ([2]; Sprague-Dawley, 20 mg/kg) [ng/mL]","Tmax ([2]; Sprague-Dawley, 20 mg/kg) [h]","clearance ([2]; Sprague-Dawley, 20 mg/kg) [mL/min/kg]","half-life ([2]; Sprague-Dawley, 20 mg/kg) [h]",efficiency of checkpoint inhibitor in the treatment of immune-tolerant mice when combined with TG100-115 [3] [%],CLz of TG100-115 ([2]; 30 mg/kg) [mL/min/kg]
CNC(=O)c1cc(Oc2ccc(NC(=O)Nc3ccc(Cl)c(C(F)(F)F)c3)cc2)ccn1 [Sorafenib],34.2,2.48 ± 0.36,46.09,23.6,78.6 ± 20.6,74.5 ± 18.7,17.3 ± 3.2,0.167 ± 0.073,423,8.8 ± 1.4,–,–
Nc1nc(N)c2nc(-c3cccc(O)c3)c(-c3cccc(O)c3)nc2n1 [TG100-115],–,2.72 ± 0.31,40.87,–,–,–,–,–,–,–,80,545 ± 91.7
